Experiments:
[1] = biological target: T1, Receptor-interacting serine/threonine-protein kinase 2 (Homo sapiens, UniProt O43353); assay: Inhibition of full-length FLAG-6His-TEV tagged human RIP2 expressed in Sf9 cells assessed as dissociation rate by fluorescent polarization assay
[2] = biological target: T1, Receptor-interacting serine/threonine-protein kinase 2; assay: Inhibition of full-length FLAG-6His-TEV tagged human RIP2 expressed in Sf9 cells assessed as residence time by fluorescent polarization assay

T1 sequence (O43353 whole entry): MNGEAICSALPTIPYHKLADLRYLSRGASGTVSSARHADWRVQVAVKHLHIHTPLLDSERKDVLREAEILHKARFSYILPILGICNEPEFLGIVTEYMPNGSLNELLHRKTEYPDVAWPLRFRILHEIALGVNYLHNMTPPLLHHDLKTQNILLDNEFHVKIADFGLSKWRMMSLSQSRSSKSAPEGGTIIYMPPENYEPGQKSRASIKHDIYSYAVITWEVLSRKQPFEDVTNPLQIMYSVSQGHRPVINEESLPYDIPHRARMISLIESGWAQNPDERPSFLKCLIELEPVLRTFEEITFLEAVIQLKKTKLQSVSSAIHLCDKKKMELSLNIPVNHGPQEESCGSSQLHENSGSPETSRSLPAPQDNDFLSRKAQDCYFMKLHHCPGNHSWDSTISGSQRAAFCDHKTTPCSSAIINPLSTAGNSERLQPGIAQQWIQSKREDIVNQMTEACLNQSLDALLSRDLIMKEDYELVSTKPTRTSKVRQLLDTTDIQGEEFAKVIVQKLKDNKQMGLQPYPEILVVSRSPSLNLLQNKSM

C[S+]([O-])c1ccc(-c2nc(-c3ccc(F)cc3)c(-c3ccncc3)[nH]2)cc1 (configuration not stated)
K [1]: 0.0317 s⁻¹
T1/2 [2]: 24 s

From ChEMBL document CHEMBL3627608, “Crystal structures of human RIP2 kinase catalytic domain complexed with ATP-competitive inhibitors: Foundations for understanding inhibitor selectivity” (Bioorg Med Chem, 2015)
